Source: the Kinase Knowledgebase extract (Sharma et al. 2016)

target: PIK3CG (human) (UniProt P48736); assay: Assessment of PIK3CG Kinase Activity
Sequence (P48736 whole entry, looked up): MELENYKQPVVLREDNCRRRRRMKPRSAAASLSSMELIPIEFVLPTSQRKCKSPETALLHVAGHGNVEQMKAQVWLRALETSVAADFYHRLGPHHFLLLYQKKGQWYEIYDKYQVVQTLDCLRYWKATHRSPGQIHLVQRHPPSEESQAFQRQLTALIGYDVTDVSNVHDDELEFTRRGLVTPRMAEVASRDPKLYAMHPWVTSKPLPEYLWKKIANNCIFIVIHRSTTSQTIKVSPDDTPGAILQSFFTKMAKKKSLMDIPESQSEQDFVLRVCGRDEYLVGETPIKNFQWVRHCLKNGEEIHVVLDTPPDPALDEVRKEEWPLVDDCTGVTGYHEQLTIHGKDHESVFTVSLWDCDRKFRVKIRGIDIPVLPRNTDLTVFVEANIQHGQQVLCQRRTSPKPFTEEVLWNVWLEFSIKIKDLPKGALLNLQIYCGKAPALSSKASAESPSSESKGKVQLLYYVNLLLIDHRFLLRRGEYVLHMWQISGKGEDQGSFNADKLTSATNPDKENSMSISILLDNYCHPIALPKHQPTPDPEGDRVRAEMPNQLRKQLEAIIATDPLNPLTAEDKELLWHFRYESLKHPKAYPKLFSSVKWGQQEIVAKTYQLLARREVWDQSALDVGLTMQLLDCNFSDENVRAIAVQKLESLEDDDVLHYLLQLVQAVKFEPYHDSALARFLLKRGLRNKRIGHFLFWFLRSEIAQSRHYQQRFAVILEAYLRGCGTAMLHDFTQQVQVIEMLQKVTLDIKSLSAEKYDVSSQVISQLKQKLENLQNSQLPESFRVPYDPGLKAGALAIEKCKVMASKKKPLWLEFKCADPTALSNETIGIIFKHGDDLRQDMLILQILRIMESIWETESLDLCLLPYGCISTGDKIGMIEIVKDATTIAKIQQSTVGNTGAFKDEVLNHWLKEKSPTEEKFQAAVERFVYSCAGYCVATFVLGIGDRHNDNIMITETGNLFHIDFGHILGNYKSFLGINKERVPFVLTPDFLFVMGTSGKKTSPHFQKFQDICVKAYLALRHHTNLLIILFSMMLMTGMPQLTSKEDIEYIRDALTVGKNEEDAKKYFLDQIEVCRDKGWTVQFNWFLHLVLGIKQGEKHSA

Structure (SMILES) | IC50
CC(C)N1CC(=O)N(C)c2cnc(Nc3cc(NS(=O)(=O)c4ccc(N5CCOCC5)nc4)cc(S(N)(=O)=O)c3)nc21 | < 0.8 µM
CC(C)N1CC(=O)N(C)c2cnc(Nc3cc(NC(=O)NC[C@H]4CCCN4c4ccncc4)cc(S(C)(=O)=O)c3)nc21 | < 0.8 µM
CC(C)N1CC(=O)N(C)c2cnc(Nc3cc(NC(=O)Cc4cccnc4)cc(S(C)(=O)=O)c3)nc21 | < 0.8 µM
CC(C)N1CC(=O)N(C)c2cnc(Nc3cc(NC(=O)NC[C@H]4CCCN4)cc(S(C)(=O)=O)c3)nc21 | < 0.8 µM
CC(C)N1CC(=O)N(C)c2cnc(Nc3cc(NC(=O)Cc4cc5cc(F)ccc5[nH]4)cc(S(C)(=O)=O)c3)nc21 | < 0.8 µM
CC(C)N1CC(=O)N(C)c2cnc(Nc3cc(NS(C)(=O)=O)cc(C(=O)NCCC4CCCN4C)c3)nc21 (stereo unspecified) | < 0.8 µM
CC(C)N1CC(=O)N(C)c2cnc(Nc3cc(NC(=O)NC[C@@H]4CCCN4)cc(S(C)(=O)=O)c3)nc21 | < 0.8 µM
CC(C)N1CC(=O)N(C)c2cnc(Nc3cc(NC(=O)N[C@@H]4CCN(C5CCOCC5)C4)cc(S(C)(=O)=O)c3)nc21 | < 0.8 µM
CC(C)N1CC(=O)N(C)c2cnc(Nc3cc(NC4CCC(N)CC4)cc(S(C)(=O)=O)c3)nc21 (stereo unspecified) | < 0.8 µM
CC(C)N1CC(=O)N(C)c2cnc(Nc3cc(NS(C)(=O)=O)cc(C(=O)NCCc4ccccn4)c3)nc21 | < 0.8 µM
CCC(C)Nc1cc(Nc2ncc3c(n2)N(C(C)C)CC(=O)N3C)cc(S(C)(=O)=O)c1 (stereo unspecified) | < 0.8 µM
CC(C)N1CC(=O)N(C)c2cnc(Nc3cc(NC(=O)[C@H](N)c4ccccc4)cc(S(C)(=O)=O)c3)nc21 | < 0.8 µM
CC(C)N1CC(=O)N(C)c2cnc(Nc3cc(NS(C)(=O)=O)cc(C(=O)NCCN(C)C)c3)nc21 | < 0.8 µM
CC(C)N1CC(=O)N(C)c2cnc(Nc3cc(NS(C)(=O)=O)cc(C(=O)NCCN4CCNC4=O)c3)nc21 | < 0.8 µM
CC(C)N1CC(=O)N(C)c2cnc(Nc3cc(NC(=O)N[C@H]4CCN(C5CCCC5)C4)cc(S(N)(=O)=O)c3)nc21 | < 0.8 µM
CC(C)N1CC(=O)N(C)c2cnc(Nc3cc(NC(=O)c4cccc(C#N)c4)cc(S(C)(=O)=O)c3)nc21 | < 0.8 µM
CC(C)N1CC(=O)N(C)c2cnc(Nc3cccc(S(=O)(=O)CCO)c3)nc21 | < 0.8 µM
CC(C)N1CC(=O)N(C)c2cnc(Nc3cc(NC(=O)N(C)Cc4ccncc4)cc(S(C)(=O)=O)c3)nc21 | < 0.8 µM
CC(C)N1CC(=O)N(C)c2cnc(Nc3cc(NC(=O)C4CNCCO4)cc(S(C)(=O)=O)c3)nc21 (stereo unspecified) | < 0.8 µM
CC(C)N1CC(=O)N(C)c2cnc(Nc3cc(NC(=O)NC4CCN(C)CC4)cc(S(C)(=O)=O)c3)nc21 | < 0.8 µM
CC(C)N1CC(=O)N(C)c2cnc(Nc3cc(C(N)=O)cc(C(F)(F)F)c3)nc21 | < 0.8 µM

Structure (SMILES) | IC50
CC(C)N1CC(=O)N(C)c2cnc(Nc3cc(NC(=O)N[C@H]4CCNC4)cc(S(C)(=O)=O)c3)nc21 | < 0.8 µM
CN1C(=O)CN(c2ccccc2)c2nc(Nc3cccc(S(=O)(=O)CCN4CCCCC4)c3)ncc21 | < 0.8 µM
CC(C)N1CC(=O)N(C)c2cnc(Nc3cc(N(C)C(=O)Cc4cccc(Cl)c4)cc(S(C)(=O)=O)c3)nc21 | < 0.8 µM
COc1ccc2[nH]c(CC(=O)Nc3cc(Nc4ncc5c(n4)N(C(C)C)CC(=O)N5C)cc(S(C)(=O)=O)c3)cc2c1 | < 0.8 µM
CC(C)N1CC(=O)N(C)c2cnc(Nc3cc(NC(=O)Cc4cccs4)cc(S(C)(=O)=O)c3)nc21 | < 0.8 µM
CC(C)N1CC(=O)N(C)c2cnc(Nc3cc(NC(N)=O)cc(S(C)(=O)=O)c3)nc21 | < 0.8 µM
CC(C)N1CC(=O)N(C)c2cnc(Nc3cc(C(F)(F)F)cc(S(C)(=O)=O)c3)nc21 | < 0.8 µM
CN=[S@@](C)(=O)c1cccc(Nc2ncc3c(n2)N(C(C)C)CC(=O)N3C)c1 | < 0.8 µM
CCN1CCCC1CNC(=O)c1cc(Nc2ncc3c(n2)N(C(C)C)CC(=O)N3C)cc(NS(C)(=O)=O)c1 (stereo unspecified) | < 0.8 µM
CC(C)N1CC(=O)N(C)c2cnc(Nc3cc(NC(=O)C[C@@H]4CCNC4)cc(S(C)(=O)=O)c3)nc21 | < 0.8 µM
CCc1cnc(CCNC(=O)Nc2cc(Nc3ncc4c(n3)N(C(C)C)CC(=O)N4C)cc(S(C)(=O)=O)c2)o1 | < 0.8 µM
Cc1cccc(CC(=O)Nc2cc(Nc3ncc4c(n3)N(C(C)C)CC(=O)N4C)cc(S(C)(=O)=O)c2)c1 | < 0.8 µM
CC(C)N1CC(=O)N(C)c2cnc(Nc3cc(NC(=O)Cc4ccsc4)cc(S(C)(=O)=O)c3)nc21 | < 0.8 µM
CC(C)N1CC(=O)N(C)c2cnc(Nc3cc(N(C)C(=O)Cc4ccsc4)cc(S(C)(=O)=O)c3)nc21 | < 0.8 µM
CC(C)N1CC(=O)N(C)c2cnc(Nc3cc(C(=O)NCc4ccncc4)cc(S(C)(=O)=O)c3)nc21 | < 0.8 µM
CC(C)N1CC(=O)N(C)c2cnc(Nc3cc(NC(=O)N[C@@H]4CCN(C5CCCC5)C4)cc(S(N)(=O)=O)c3)nc21 | < 0.8 µM
CC(C)N1CC(=O)N(C)c2cnc(Nc3cc(NC(=O)N4CCOCC4)cc(S(C)(=O)=O)c3)nc21 | < 0.8 µM
CC(C)N1CC(=O)N(C)c2cnc(Nc3cc(Br)cc(S(C)(=O)=O)c3)nc21 | < 0.8 µM
CC(C)N1CC(=O)N(C)c2cnc(Nc3cc(NC(=O)N[C@H]4CCN(C(=O)OC(C)(C)C)C4)cc(S(C)(=O)=O)c3)nc21 | < 0.8 µM
CC(C)N1CC(=O)N(C)c2cnc(Nc3cc(NC(=O)Cc4cccc(F)c4)cc(S(C)(=O)=O)c3)nc21 | < 0.8 µM
CC(C)N1CC(=O)N(C)c2cnc(Nc3cc(NC(=O)NCCN4CCNC4=O)cc(S(C)(=O)=O)c3)nc21 | < 0.8 µM

Structure (SMILES) | IC50
CC(C)N1CC(=O)N(C)c2cnc(Nc3cc(NC(=O)O[C@@H]4CCN(C5CCCC5)C4)cc(S(C)(=O)=O)c3)nc21 | < 0.8 µM
CNC(=O)c1cc(Nc2ncc3c(n2)N(C(C)C)CC(=O)N3C)cc(S(C)(=O)=O)c1 | < 0.8 µM
CC(C)N1CC(=O)N(C)c2cnc(Nc3cc(N(C)C(=O)N[C@H]4CCN(Cc5ccccc5)C4)cc(S(C)(=O)=O)c3)nc21 | < 0.8 µM
Cc1oncc1C(=O)Nc1cc(Nc2ncc3c(n2)N(C(C)C)CC(=O)N3C)cc(S(C)(=O)=O)c1 | < 0.8 µM
CC(C)N1CC(=O)N(C)c2cnc(Nc3cc(NC(=O)[C@@H]4CCCN(C5CCCC5)C4)cc(S(C)(=O)=O)c3)nc21 | < 0.8 µM
CC(C)N1CC(=O)N(C)c2cnc(Nc3cc(NS(C)(=O)=O)cc(C(=O)NCCCCN(C)C)c3)nc21 | < 0.8 µM
CC(C)N1CC(=O)N(C)c2cnc(Nc3cc(NC(=O)C4CCCCN4)cc(S(C)(=O)=O)c3)nc21 (stereo unspecified) | < 0.8 µM
CC(C)N1CC(=O)N(C)c2cnc(Nc3cc(NC(=O)NCC4CC4)cc(S(C)(=O)=O)c3)nc21 | < 0.8 µM
CC(C)N1CC(=O)N(C)c2cnc(Nc3cccc(S(=O)(=O)CCNC4CCC4)c3)nc21 | < 0.8 µM
CC(C)N1CC(=O)N(C)c2cnc(Nc3cc(NC(=O)NCCCN(C)C)cc(S(C)(=O)=O)c3)nc21 | < 0.8 µM
CC(C)N1CC(=O)N(C)c2cnc(Nc3cc(C(=O)NCCCN(C)C)cc(S(C)(=O)=O)c3)nc21 | < 0.8 µM
CCC(C(=O)Nc1cc(Nc2ncc3c(n2)N(C(C)C)CC(=O)N3C)cc(S(C)(=O)=O)c1)c1ccccc1 (stereo unspecified) | < 0.8 µM
CC(C)N1CC(=O)N(C)c2cnc(Nc3cc(NS(C)(=O)=O)cc(C(=O)NCc4ccncc4)c3)nc21 | < 0.8 µM
CC(C)N1CC(=O)N(C)c2cnc(Nc3cc(NC(=O)c4csc5ccccc45)cc(S(C)(=O)=O)c3)nc21 | < 0.8 µM
CC(C)N1CC(=O)N(C)c2cnc(Nc3cc(C(=O)NCCN(C)C)cc(S(C)(=O)=O)c3)nc21 | < 0.8 µM
CNCCS(=O)(=O)c1cccc(Nc2ncc3c(n2)N(C(C)C)CC(=O)N3C)c1 | < 0.8 µM
CC(C)N1CC(=O)N(C)c2cnc(Nc3cc(NC(=O)[C@H]4CCCN(C5CCCC5)C4)cc(S(C)(=O)=O)c3)nc21 | < 0.8 µM
CC(C)N1CC(=O)N(C)c2cnc(Nc3cc(NC(=O)C[C@@H]4CCN(C5CCCC5)C4)cc(S(C)(=O)=O)c3)nc21 | < 0.8 µM
Cc1cc(CC(=O)N(C)c2cc(Nc3ncc4c(n3)N(C(C)C)CC(=O)N4C)cc(S(C)(=O)=O)c2)on1 | < 0.8 µM
CC(C)N1CC(=O)N(C)c2cnc(Nc3cc(Cl)cc(S(C)(=O)=O)c3)nc21 | < 0.8 µM
CC(C)N1CC(=O)N(C)c2cnc(Nc3cc(NC(=O)Cc4cc5ccccc5n4C)cc(S(C)(=O)=O)c3)nc21 | < 0.8 µM

Structure (SMILES) | IC50
CC(C)N1CC(=O)N(C)c2cnc(Nc3cc(C(=O)NCCN4CCNC4=O)cc(S(C)(=O)=O)c3)nc21 | < 0.8 µM
CC(C)N1CC(=O)N(C)c2cnc(Nc3cc(NC(=O)N[C@H]4CCN(C5CCOCC5)C4)cc(S(C)(=O)=O)c3)nc21 | < 0.8 µM
CC(C)NCCS(=O)(=O)c1cccc(Nc2ncc3c(n2)N(C(C)C)CC(=O)N3C)c1 | < 0.8 µM
CC(C)N1CC(=O)N(C)c2cnc(Nc3cc(NC(=O)[C@@H]4CCCNC4)cc(S(C)(=O)=O)c3)nc21 | < 0.8 µM
CNC(=O)c1cc(Nc2ncc3c(n2)N(C(C)C)CC(=O)N3C)cc(C(F)(F)F)c1 | < 0.8 µM
CC(C)N1CC(=O)N(C)c2cnc(Nc3cc(N(C)C(=O)N[C@H]4CCN(C5CCCC5)C4)cc(S(C)(=O)=O)c3)nc21 | < 0.8 µM
Cc1[nH]c2ccccc2c1CC(=O)Nc1cc(Nc2ncc3c(n2)N(C(C)C)CC(=O)N3C)cc(S(C)(=O)=O)c1 | < 0.8 µM
CC(C)N1CC(=O)N(C)c2cnc(Nc3cc(NS(=O)(=O)Cc4ccccc4)cc(S(C)(=O)=O)c3)nc21 | < 0.8 µM
CC(C)N1CC(=O)N(C)c2cnc(Nc3cc(Nc4ccc(CN5CCN(C)CC5)cc4)cc(S(C)(=O)=O)c3)nc21 | < 0.8 µM
CNC(=O)Nc1cc(Nc2ncc3c(n2)N(C(C)C)CC(=O)N3C)cc(S(C)(=O)=O)c1 | < 0.8 µM
CC(C)N1CC(=O)N(C)c2cnc(Nc3cc(NC(=O)C[C@H]4CCN(C5CCCC5)C4)cc(S(C)(=O)=O)c3)nc21 | < 0.8 µM
CC(C)N1CC(=O)N(C)c2cnc(Nc3cc(CS(C)(=O)=O)cc(C(F)(F)F)c3)nc21 | < 0.8 µM
Cc1cc(CC(=O)Nc2cc(Nc3ncc4c(n3)N(C(C)C)CC(=O)N4C)cc(S(C)(=O)=O)c2)on1 | < 0.8 µM
CC(C)N1CC(=O)N(C)c2cnc(Nc3cc(NC(=O)[C@@H]4CCN(C5CCCC5)C4)cc(S(C)(=O)=O)c3)nc21 | < 0.8 µM
CC(C)N1CC(=O)N(C)c2cnc(Nc3cc(NC(=O)[C@H]4CCNC4)cc(S(C)(=O)=O)c3)nc21 | < 0.8 µM
CC(C)N1CC(=O)N(C)c2cnc(Nc3cc(-c4cc(C5CC5)[nH]n4)cc(S(C)(=O)=O)c3)nc21 | < 0.8 µM
CC(C)N1CC(=O)N(C)c2cnc(Nc3cc(NS(=O)(=O)c4cccnc4)cc(S(C)(=O)=O)c3)nc21 | < 0.8 µM
CC[C@@H]1CN(c2cccc(Nc3ncc4c(n3)N(C(C)C)CC(=O)N4C)c2)C(=O)CN1C | < 0.8 µM
